The text below walks through data of PMC4457528, “Identification of Novel Small Molecule Inhibitors of Oncogenic RET Kinase” (PLoS ONE, 2015).

A value given as a limit tells only on which side of the number the result lay.

Common to all, as to test: KinomeScan kinase panel, single concentration 10 µM
Common to all, as to assay type: binding

The target of test [1] is T1, KinomeScan kinase panel (Homo sapiens, UniProt P07947).
T1 construct: purchased DiscoveRx (KinomeScan)
As to conditions: kinase YES; 10 µM; read-out: score (%).

The target in test [2] is T2, KinomeScan kinase panel (Homo sapiens, UniProt Q8IYT8).
T2 construct: purchased DiscoveRx (KinomeScan)
T2 sequence (Q8IYT8 1-1036): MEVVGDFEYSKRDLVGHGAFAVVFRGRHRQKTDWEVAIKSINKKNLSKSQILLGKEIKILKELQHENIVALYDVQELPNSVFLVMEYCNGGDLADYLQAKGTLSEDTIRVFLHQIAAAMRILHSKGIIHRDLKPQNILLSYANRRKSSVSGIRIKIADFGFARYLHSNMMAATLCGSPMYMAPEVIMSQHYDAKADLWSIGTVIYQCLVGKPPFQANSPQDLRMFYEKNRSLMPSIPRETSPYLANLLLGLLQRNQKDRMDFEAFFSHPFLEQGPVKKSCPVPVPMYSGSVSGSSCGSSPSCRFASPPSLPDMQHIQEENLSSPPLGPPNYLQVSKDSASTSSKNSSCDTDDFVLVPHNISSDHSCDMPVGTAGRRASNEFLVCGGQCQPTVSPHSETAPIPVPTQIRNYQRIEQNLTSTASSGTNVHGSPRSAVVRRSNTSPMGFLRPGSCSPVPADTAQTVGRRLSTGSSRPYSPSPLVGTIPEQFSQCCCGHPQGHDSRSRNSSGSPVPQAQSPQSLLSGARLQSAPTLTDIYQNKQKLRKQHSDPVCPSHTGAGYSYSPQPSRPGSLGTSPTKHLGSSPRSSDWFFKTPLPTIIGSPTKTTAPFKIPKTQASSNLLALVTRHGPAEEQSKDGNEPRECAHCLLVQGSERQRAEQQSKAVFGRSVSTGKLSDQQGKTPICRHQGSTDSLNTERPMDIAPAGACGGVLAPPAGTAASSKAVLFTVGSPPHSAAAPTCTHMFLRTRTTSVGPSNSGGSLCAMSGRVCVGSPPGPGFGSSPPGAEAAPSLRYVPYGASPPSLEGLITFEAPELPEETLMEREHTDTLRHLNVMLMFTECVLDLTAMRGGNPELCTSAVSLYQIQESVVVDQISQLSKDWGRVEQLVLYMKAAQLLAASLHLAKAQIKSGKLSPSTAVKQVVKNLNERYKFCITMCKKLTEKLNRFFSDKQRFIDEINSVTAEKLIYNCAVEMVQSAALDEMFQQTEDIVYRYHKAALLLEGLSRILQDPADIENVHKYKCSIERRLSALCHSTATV
As to conditions: kinase ULK2; 10 µM; read-out: score (%).

The target in test [3] is T3, KinomeScan kinase panel (Homo sapiens, UniProt P45984).
T3 construct: purchased DiscoveRx (KinomeScan)
The note with it: JNK2, 10 µM.

In test [4] the target is T4, KinomeScan kinase panel (Homo sapiens, UniProt P29323).
T4 construct: purchased DiscoveRx (KinomeScan)
T4 sequence (P29323 19-1055): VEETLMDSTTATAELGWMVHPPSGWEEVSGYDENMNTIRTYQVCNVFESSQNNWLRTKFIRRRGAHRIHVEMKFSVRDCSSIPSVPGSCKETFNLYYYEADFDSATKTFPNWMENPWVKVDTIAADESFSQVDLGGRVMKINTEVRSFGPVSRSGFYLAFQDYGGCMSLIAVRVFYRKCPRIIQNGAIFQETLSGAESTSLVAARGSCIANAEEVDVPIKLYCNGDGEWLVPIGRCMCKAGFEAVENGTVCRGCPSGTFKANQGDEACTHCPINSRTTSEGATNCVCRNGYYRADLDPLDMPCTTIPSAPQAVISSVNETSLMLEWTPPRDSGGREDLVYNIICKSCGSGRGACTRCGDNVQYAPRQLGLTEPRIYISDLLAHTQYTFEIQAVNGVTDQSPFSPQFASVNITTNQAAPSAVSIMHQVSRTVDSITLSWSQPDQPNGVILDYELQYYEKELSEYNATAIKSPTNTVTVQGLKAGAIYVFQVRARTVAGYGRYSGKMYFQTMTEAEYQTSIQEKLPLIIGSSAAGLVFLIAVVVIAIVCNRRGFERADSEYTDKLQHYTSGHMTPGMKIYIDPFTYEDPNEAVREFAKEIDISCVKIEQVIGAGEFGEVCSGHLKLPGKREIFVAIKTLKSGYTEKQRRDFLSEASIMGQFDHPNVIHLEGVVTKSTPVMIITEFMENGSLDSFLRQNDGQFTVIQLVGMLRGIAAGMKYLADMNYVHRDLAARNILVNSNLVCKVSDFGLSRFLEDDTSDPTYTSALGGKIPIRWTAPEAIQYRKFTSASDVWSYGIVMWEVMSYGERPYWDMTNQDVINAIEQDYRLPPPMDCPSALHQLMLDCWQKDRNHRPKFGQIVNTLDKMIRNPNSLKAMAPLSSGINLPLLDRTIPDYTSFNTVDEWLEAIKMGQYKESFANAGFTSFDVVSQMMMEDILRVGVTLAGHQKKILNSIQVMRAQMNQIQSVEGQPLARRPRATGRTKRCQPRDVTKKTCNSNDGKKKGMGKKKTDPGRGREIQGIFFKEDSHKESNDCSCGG
The note with it: EPHB2, 10 µM.

Test [5] concerns the target T5, KinomeScan kinase panel (Homo sapiens, UniProt Q9UEE5).
T5 construct: purchased DiscoveRx (KinomeScan)
T5 sequence (Q9UEE5 1-414): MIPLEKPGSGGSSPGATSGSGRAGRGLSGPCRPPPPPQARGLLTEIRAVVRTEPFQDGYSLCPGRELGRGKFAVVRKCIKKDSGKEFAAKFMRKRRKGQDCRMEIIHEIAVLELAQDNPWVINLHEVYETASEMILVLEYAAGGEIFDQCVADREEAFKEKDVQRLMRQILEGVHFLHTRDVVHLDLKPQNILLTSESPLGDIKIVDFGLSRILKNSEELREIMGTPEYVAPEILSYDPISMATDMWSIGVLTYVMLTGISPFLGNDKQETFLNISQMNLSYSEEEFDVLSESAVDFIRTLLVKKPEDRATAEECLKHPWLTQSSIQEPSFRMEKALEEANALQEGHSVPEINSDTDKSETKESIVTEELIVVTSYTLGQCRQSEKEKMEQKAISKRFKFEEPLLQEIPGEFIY
The note with it: DRAK1, 10 µM; read-out: score (%).

The target of test [6] is T6, KinomeScan kinase panel (Homo sapiens, UniProt P80192).
T6 construct: purchased DiscoveRx (KinomeScan)
The note with it: MLK1, 10 µM; read-out: score (%).

T1 sequence (P07947 whole entry): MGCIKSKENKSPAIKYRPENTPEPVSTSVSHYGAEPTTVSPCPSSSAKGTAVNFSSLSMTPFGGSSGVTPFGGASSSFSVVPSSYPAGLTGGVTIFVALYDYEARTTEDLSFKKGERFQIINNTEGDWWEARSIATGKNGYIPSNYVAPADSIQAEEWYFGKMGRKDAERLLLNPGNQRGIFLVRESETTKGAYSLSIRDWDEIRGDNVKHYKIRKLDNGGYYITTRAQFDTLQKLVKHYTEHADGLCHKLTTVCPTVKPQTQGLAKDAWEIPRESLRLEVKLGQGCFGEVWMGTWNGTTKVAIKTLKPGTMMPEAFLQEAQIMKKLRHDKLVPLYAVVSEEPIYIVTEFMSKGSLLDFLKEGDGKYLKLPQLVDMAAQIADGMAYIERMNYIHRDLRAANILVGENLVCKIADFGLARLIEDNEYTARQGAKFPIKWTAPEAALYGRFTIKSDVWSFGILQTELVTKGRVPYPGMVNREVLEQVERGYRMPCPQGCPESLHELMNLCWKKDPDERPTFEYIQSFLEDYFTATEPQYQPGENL
T3 sequence (P45984 whole entry): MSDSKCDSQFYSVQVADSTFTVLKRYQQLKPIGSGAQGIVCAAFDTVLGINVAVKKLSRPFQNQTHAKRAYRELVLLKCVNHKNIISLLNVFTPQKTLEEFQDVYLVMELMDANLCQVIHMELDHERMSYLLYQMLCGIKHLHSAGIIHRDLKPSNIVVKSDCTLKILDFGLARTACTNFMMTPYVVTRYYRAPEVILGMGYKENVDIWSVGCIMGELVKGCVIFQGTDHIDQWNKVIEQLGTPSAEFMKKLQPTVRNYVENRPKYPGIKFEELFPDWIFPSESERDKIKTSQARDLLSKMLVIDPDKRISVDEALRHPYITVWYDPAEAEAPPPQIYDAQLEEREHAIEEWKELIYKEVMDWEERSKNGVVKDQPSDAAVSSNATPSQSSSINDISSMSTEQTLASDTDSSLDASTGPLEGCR
T6 sequence (P80192 whole entry): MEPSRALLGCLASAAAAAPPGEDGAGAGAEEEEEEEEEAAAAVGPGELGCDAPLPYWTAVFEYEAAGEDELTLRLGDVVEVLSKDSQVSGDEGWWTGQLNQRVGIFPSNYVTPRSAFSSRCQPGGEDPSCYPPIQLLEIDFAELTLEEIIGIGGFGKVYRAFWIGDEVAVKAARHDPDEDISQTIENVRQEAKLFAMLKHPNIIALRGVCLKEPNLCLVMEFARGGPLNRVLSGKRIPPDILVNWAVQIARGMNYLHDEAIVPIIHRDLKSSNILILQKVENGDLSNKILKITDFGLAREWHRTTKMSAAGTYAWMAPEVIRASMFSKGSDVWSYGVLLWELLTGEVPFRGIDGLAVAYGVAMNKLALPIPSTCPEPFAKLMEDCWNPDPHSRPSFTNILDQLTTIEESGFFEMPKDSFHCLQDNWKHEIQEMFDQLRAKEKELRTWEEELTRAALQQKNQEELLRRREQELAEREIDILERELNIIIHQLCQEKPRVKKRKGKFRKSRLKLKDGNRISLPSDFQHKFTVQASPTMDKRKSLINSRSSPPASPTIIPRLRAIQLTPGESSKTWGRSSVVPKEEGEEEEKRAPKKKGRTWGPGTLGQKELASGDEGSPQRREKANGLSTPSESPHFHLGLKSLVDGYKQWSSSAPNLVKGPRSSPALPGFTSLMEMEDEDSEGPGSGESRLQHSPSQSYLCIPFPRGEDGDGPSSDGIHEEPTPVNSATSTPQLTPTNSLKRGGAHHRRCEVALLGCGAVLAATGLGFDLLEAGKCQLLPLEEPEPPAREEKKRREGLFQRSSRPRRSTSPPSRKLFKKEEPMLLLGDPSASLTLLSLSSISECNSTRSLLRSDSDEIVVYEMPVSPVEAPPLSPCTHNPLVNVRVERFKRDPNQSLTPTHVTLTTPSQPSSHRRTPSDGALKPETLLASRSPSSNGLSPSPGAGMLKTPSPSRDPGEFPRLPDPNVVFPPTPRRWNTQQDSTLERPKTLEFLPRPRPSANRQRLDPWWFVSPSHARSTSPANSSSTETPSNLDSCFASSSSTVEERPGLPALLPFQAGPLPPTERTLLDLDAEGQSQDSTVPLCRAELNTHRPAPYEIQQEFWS

Regarding `CCN1CCN(Cc2ccc(NC(=O)c3ccc(C)c(NC(=O)c4cncc(-c5cccs5)c4)c3)cc2C(F)(F)F)CC1` [ALW-II-41-27], the remaining binding at 10 µM in test [1] is 0.1%; in test [2], over 30%; in test [5], over 30%; in test [6], over 30%. Moreover, the “score (%)” value in test [3] was found to be 0.25%; in test [4] it was 0%.

`CCN1CCN(Cc2ccc(NC(=O)c3ccc(C)c(/C=C/c4cnc5[nH]ccc5c4Cl)c3)cc2C(F)(F)F)CC1` [HG-6-63-01, (E)-3-(2-(4-chloro-1H-pyrrolo[2,3-b]pyridin-5-yl)vinyl)-N-(4-((4-ethylpiperazin-1-yl)methyl)-3-(trifluoromethyl)phenyl)-4-methylbenzamide]: the remaining binding at 10 µM in test [1] was 0.85%; in test [2], 27%; in test [5], 0.35%; in test [6] it was 0.6%. Also, the “score (%)” value in test [3] and in test [4] was 1.1% each time.

As for `CCN1CCN(Cc2ccc(NC(=O)c3ccc(C)c(C#Cc4cccnc4)c3)cc2C(F)(F)F)CC1` [XMD15-44], the remaining binding at 10 µM is 0.1% in test [1], 50% in test [2], over 30% in test [5] and over 30% in test [6]. Further, the “score (%)” value worked out at 0% in test [3] and 0.1% in test [4].
